This passage reports CC50 and EC50 results from patent publication US20120122848A1, “(+)-3-HYDROXYMORPHINAN DERIVATIVES AS NEUROPROTECTANTS” (GREEN CROSS CORPORATION, priority 2009, published 2012).

Data set [1] in a line: Cell cytotoxicity test: protection of HT22 cells against glutamate toxicity (EC50) and cytotoxicity of the compounds (CC50), MTT. The class given is cell-based, mouse. Particulars: mouse, HT22 cells (mouse hippocampal neuron). The method in brief: (§1)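 Cells plated 16 hrs, then exposed to 5 mM glutamate plus a compound concentration series for 24 hrs in DMEM with 10% FBS. Viability by MTT (4 hrs), absorbance at 450 nm; EC50 is protection against glutamate toxicity, CC50 is compound cytotoxicity.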

The subject of data set [2] is HT22 cells (mouse hippocampal neuron). The data set is described as above. Particulars: Mus musculus, HT-22, five millimolar glutamate, 24 hrs, read-out: EC50 (neuroprotective effect against glutamate toxicity). It is filed as cell-based. Summed up:
as §1

Where a name gives a salt, the structure may show the parent alone.

Broadly, the CC50 is the concentration that lowers cell viability or growth by half. Read a low CC50 as greater toxicity to the cells. Broadly, the EC50 is the concentration giving half of the maximal effect. For `CCCCNc1cc2c(cc1O)[C@]13CCCC[C@@H]1[C@H](C2)NCC3` [Example 90, (+)-2-Butylamino-3-hydroxymorphinan TFA salt], the CC50 at 24 h in data set [1] stood at 35000 nM. Further, in data set [2], the EC50 came out at 74.7 nM.
In data set [1], `Oc1cc2c(cc1Nc1ccccc1Cc1ccccc1)C[C@@H]1NCC[C@]23CCCC[C@H]13` [Example 62, (+)-2-(2-Benzylphenylamino)-3-hydroxymorphinan TFA salt] had a CC50 at 24 h of 1600 nM. Moreover, the EC50 in data set [2] worked out at 52.4 nM.
The matching figures for `Cc1ccc(-c2cc3c(cc2O)[C@]24CCCC[C@@H]2[C@H](C3)NCC4)cc1` [Example 75, (+)-3-Hydroxy-2-(4-methylphenyl)morphinan TFA salt]: 9400 nM and 1660 nM.
The matching figures for `Nc1ccccc1Nc1cc2c(cc1O)[C@]13CCCC[C@@H]1[C@H](C2)NCC3` [Example 106, (+)-2-(2-Aminophenylamino)-3-hydroxymorphinan TFA salt]: 21800 nM and 36.6 nM.
In the case of `CCNC(=O)Nc1ccccc1Nc1cc2c(cc1O)[C@]13CCCC[C@@H]1[C@H](C2)NCC3` [Example 120, (+)-2-(2-(Ethylureido)phenylamino)-3-hydroxymorphinan TFA salt], in data set [1], the CC50 at 24 h is 36500 nM. In data set [2], the EC50 was 8850 nM.
The like results for `CCCCc1cc2c(cc1O)[C@]13CCCC[C@@H]1[C@H](C2)NCC3` [Example 83, (+)-2-Butyl-3-hydroxymorphinan TFA salt] were, in that order, 51500 nM and 2070 nM.
The matching figures for `CNc1ccccc1Nc1cc2c(cc1O)[C@]13CCCC[C@@H]1[C@H](C2)NCC3` [Example 127, (+)-3-Hydroxy-2-(2-(methylamino)phenylamino)morphinan TFA salt]: 1300 nM and 62.1 nM.
The like results for `Cc1c2c(cc(O)c1Nc1ccccc1NS(C)(=O)=O)[C@]13CCCC[C@@H]1[C@H](C2)NCC3` [Example 134, (+)-3-Hydroxy-2-(2-(methanesulfonamido)phenylamino)-1-methylmorphinan TFA salt] were, in that order, 53200 nM and 153 nM.
Turning to `CSc1cc2c(cc1O)[C@]13CCCC[C@@H]1[C@H](C2)NCC3` [Example 72, (+)-3-Hydroxy-2-methylthiomorphinan TFA salt], the CC50 at 24 h in data set [1] was 77300 nM. Besides, in data set [2], the EC50 amounted to 2210 nM.
The matching figures for `CCC(C)Nc1cc2c(cc1O)[C@]13CCCC[C@@H]1[C@H](C2)NCC3` (stereo partly drawn) [Example 95, (+)-2-(sec-Butylamino)-3-hydroxymorphinan TFA salt]: 66400 nM and 131 nM.
The like results for `Oc1cc2c(cc1Nc1ccc(Cl)c(Cl)c1)C[C@@H]1NCC[C@]23CCCC[C@H]13` [Example 65, (+)-2-(3,4-Dichlorophenylamino)-3-hydroxymorphinan TFA salt] were, in that order, 1600 nM and 314 nM.
The like results for `N#Cc1ccccc1Nc1cc2c(cc1O)[C@]13CCCC[C@@H]1[C@H](C2)NCC3` [Example 107, (+)-2-(2-Cyanophenylamino)-3-hydroxymorphinan TFA salt] were, in that order, 5800 nM and 557 nM.
For `Oc1cc2c(cc1Nc1ccc3[nH]ncc3c1)C[C@@H]1NCC[C@]23CCCC[C@H]13` [Example 69, (+)-3-Hydroxy-2-((1H-indazol-5-yl)amino)morphinan TFA salt], the CC50 at 24 h in data set [1] was 48000 nM. In addition, the EC50 in data set [2] was 1020 nM.
The like results for `Oc1cc2c(cc1-c1ccc(Cl)cc1Cl)C[C@@H]1NCC[C@]23CCCC[C@H]13` [Example 76, (+)-2-(2,4-Dichlorophenyl)-3-hydroxymorphinan TFA salt] were, in that order, 4400 nM and 2970 nM.
In data set [1], `Nc1ccc(Nc2cc3c(cc2O)[C@]24CCCC[C@@H]2[C@H](C3)NCC4)cc1` [Example 32, (+)-2-(4-Aminophenyamino)-3-hydroxymorphinan TFA salt] displayed a CC50 at 24 h of 14100 nM. Also, the EC50 in data set [2] was determined as 43.1 nM.
